This passage reports inhibition and Activity results from ChEMBL document CHEMBL3400021, “Systematic synthesis and anti-inflammatory activity of ω-carboxylated menaquinone derivatives--Investigations on identified and putative vitamin K₂ metabolites” (Bioorg Med Chem, 2015).

For orientation: inhibition means the relative decrease from the control value, in per cent.

In series [1] the test system is RAW264.7. Put plainly: Antiinflammatory activity in mouse RAW264.7 cells assessed as inhibition of LPS-induced TNF-alpha level at 10 uM incubated for 24 hrs prior to LPS challenge measured after 3 hrs by qRT-PCR analysis relative to control. The class given is functional. Background: Real-time PCR tracks product formation cycle by cycle.
Series [2] concerns RAW264.7. The experiment in a line: Cytotoxicity against mouse RAW264.7 cells. The class given is cell-based.
The subject of series [3] is RAW264.7. The experiment in a line: Antiinflammatory activity in mouse RAW264.7 cells assessed as inhibition of LPS-induced IL-6 level at 10 uM incubated for 24 hrs prior to LPS challenge measured after 3 hrs by qRT-PCR analysis relative to control. The series is classed as functional.
In series [4] the test system is RAW264.7. Put plainly: Antiinflammatory activity in mouse RAW264.7 cells assessed as inhibition of LPS-induced IL-1beta level at 10 uM incubated for 24 hrs prior to LPS challenge measured after 3 hrs by qRT-PCR analysis relative to control. The series is classed as functional.
In series [5] the test system is RAW264.7. The experiment in a line: Antiinflammatory activity in mouse RAW264.7 cells assessed as inhibition of LPS-induced IL-1beta level at 5 uM incubated for 24 hrs prior to LPS challenge measured after 3 hrs by qRT-PCR analysis relative to control. The class given is functional.
For series [6], the system named is RAW264.7. The experiment in a line: Antiinflammatory activity in mouse RAW264.7 cells assessed as inhibition of LPS-induced IL-6 level at 5 uM incubated for 24 hrs prior to LPS challenge measured after 3 hrs by qRT-PCR analysis relative to control. The class given is functional.
The subject of series [7] is RAW264.7. The experiment in a line: Antiinflammatory activity in mouse RAW264.7 cells assessed as inhibition of LPS-induced TNF-alpha level at 5 uM incubated for 24 hrs prior to LPS challenge measured after 3 hrs by qRT-PCR analysis relative to control. The series is classed as functional.
Series [8] concerns RAW264.7. Put plainly: Antiinflammatory activity in mouse RAW264.7 cells assessed as inhibition of LPS-induced TNF-alpha level at 1 uM incubated for 24 hrs prior to LPS challenge measured after 3 hrs by qRT-PCR analysis relative to control. The series is classed as functional.
Series [9] deals with RAW264.7. The experiment in a line: Antiinflammatory activity in mouse RAW264.7 cells assessed as inhibition of LPS-induced IL-6 level at 1 uM incubated for 24 hrs prior to LPS challenge measured after 3 hrs by qRT-PCR analysis relative to control. The class given is functional.
In series [10] the test system is RAW264.7. The experiment in a line: Antiinflammatory activity in mouse RAW264.7 cells assessed as inhibition of LPS-induced IL-1beta level at 1 uM incubated for 24 hrs prior to LPS challenge measured after 3 hrs by qRT-PCR analysis relative to control. The series is classed as functional.

With `CC1=C(C/C=C(\C)CC/C=C(\C)CC/C=C(\C)CCC(=O)O)C(=O)c2ccccc2C1=O`, the inhibition at 10 µM in [1] was found to be 2.2%; in series [3], 10.6%; in [4], 21.3%. Also, the Activity result in series [2] is on record as “Non-toxic”.

On to `CC1=C(C/C=C(\C)CC/C=C(\C)CCC(=O)O)C(=O)c2ccccc2C1=O`, for which the results for the inhibition at 5 µM in series [5], in [6] and in [7] were 51.5%, 52.1% and 26.3%, respectively. Further, the Activity entry in [2] was “Non-toxic”.

Take `CC1=C(CCC(C)C(=O)O)C(=O)c2ccccc2C1=O` (stereo not drawn): the inhibition at 1 µM in [8] amounted to 17.3%; in series [9] it was 20.6%; in series [10], 23.1%. In [2], the Activity entry is “Non-toxic”.

Take `CC1=C(C/C=C(\C)CC/C=C(\C)C(=O)O)C(=O)c2ccccc2C1=O`: the inhibition at 1 µM in series [8] came to 7.7%; in series [9], 47.7%; in series [10], 43.5%. Moreover, in series [2], the Activity entry is “Non-toxic”.

In the case of `CC1=C(C/C=C(\C)CC/C=C(\C)CC/C=C(\C)C(=O)O)C(=O)c2ccccc2C1=O`, the inhibition at 10 µM was determined as 24.4% in series [1], 46.3% in series [3] and 37% in series [4]. In addition, the Activity result in series [2] is reported as “Non-toxic”.

For `CC1=C(C/C=C(\C)CCC(=O)O)C(=O)c2ccccc2C1=O`, the inhibition at 5 µM was determined as 28.3% in [5], 29.8% in [6] and 25.2% in series [7]. Further, the Activity result in series [2] is given as “Non-toxic”.

Turning to `CC1=C(C/C=C(\C)C(=O)O)C(=O)c2ccccc2C1=O`, the inhibition at 10 µM in series [1] came out at 20.8%; in [3], 34.4%; in series [4], 40.6%. Also, in series [2], the Activity result is on record as “Non-toxic”.
